Test results reported in ChEMBL document CHEMBL3046894, “Synthesis and Herbicidal Activity of Pyrimidinyl Salicylic and Thiosalicylic Acids” (J Pestic Sci, 1996).
Active and inactive are the calls of the source. No cut-off for these calls is given here.

What was measured:
Type in all cases: functional, organism-based
[1] = tested on: Persicaria nodosa; assay: Post-emergence herbicidal activity against Persicaria nodosa assessed as growth inhibition at 25 g a.i/10 a applied 11 days after germination as foliar spray
[2] = tested on: Amaranthus retroflexus; assay: Post-emergence herbicidal activity against Amaranthus retroflexus assessed as growth inhibition at 25 g a.i/10 a applied 11 days after germination as foliar spray
[3] = tested on: Chenopodium album; assay: Pre-emergence herbicidal activity against Chenopodium album assessed as growth inhibition at 25 g a.i/10 a
[4] = tested on: Persicaria nodosa; assay: Pre-emergence herbicidal activity against Persicaria nodosa assessed as growth inhibition at 25 g a.i/10 a
[5] = tested on: Echinochloa crus-galli; assay: Post-emergence herbicidal activity against Echinochloa crus-galli (barnyard grass) assessed as growth inhibition at 25 g a.i/10 a applied 11 days after germination as foliar spray
[6] = tested on: Digitaria sanguinalis; assay: Pre-emergence herbicidal activity against Digitaria sanguinalis (hairy crabgrass) assessed as growth inhibition at 25 g a.i/10 a
[7] = tested on: Cyperus iria; assay: Post-emergence herbicidal activity against Cyperus iria assessed as growth inhibition at 25 g a.i/10 a applied 11 days after germination as foliar spray
[8] = tested on: Amaranthus retroflexus; assay: Pre-emergence herbicidal activity against Amaranthus retroflexus assessed as growth inhibition at 25 g a.i/10 a
[9] = tested on: Digitaria sanguinalis; assay: Post-emergence herbicidal activity against Digitaria sanguinalis (hairy crabgrass) assessed as growth inhibition at 25 g a.i/10 a applied 11 days after germination as foliar spray
[10] = tested on: Chenopodium album; assay: Post-emergence herbicidal activity against Chenopodium album assessed as growth inhibition at 25 g a.i/10 a applied 11 days after germination as foliar spray
[11] = tested on: Echinochloa crus-galli; assay: Pre-emergence herbicidal activity against Echinochloa crus-galli (barnyard grass) assessed as growth inhibition at 25 g a.i/10 a
[12] = tested on: Cyperus iria; assay: Pre-emergence herbicidal activity against Cyperus iria assessed as growth inhibition at 25 g a.i/10 a

SMILES	growth inhibition (GI) [1]	growth inhibition (GI) [2]	growth inhibition (GI) [3]	growth inhibition (GI) [4]	growth inhibition (GI) [5]	growth inhibition (GI) [6]	growth inhibition (GI) [7]	growth inhibition (GI) [8]	growth inhibition (GI) [9]	growth inhibition (GI) [10]	growth inhibition (GI) [11]	growth inhibition (GI) [12]
COc1cc(OC)nc(Oc2ccc(I)cc2C(=O)O)n1	Active	inactive	inactive	inactive	Active	inactive	Active	inactive	inactive	inactive	inactive	inactive
COc1ccc(Oc2nc(OC)cc(OC)n2)c(C(=O)O)c1	Active	Active	Active	Active	Active	Active	Active	Active	Active	inactive	Active	Active
CCCOc1cccc(Oc2nc(OC)cc(OC)n2)c1C(=O)O	Active	Active	Active	Active	Active	Active	Active	Active	Active	Active	Active	Active
COc1cc(OC)nc(Oc2cccc(C(=O)c3ccccc3)c2C(=O)O)n1	Active	Active	Active	inactive	inactive	inactive	Active	Active	inactive	Active	inactive	Active
COc1cc(OC)nc(Oc2cccc(-c3ccccc3)c2C(=O)O)n1	Active	Active	Active	Active	Active	Active	Active	Active	Active	Active	Active	Active
COc1cc(OC)nc(Cc2cccc(Cl)c2C(=O)O)n1	Active	Active	Active	Active	Active	Active	Active	Active	Active	Active	Active	Active
CCCSc1cccc(Oc2nc(OC)cc(OC)n2)c1C(=O)O	Active	Active	inactive	inactive	inactive	inactive	inactive	inactive	inactive	inactive	inactive	inactive
CCCCOc1cccc(Oc2nc(OC)cc(OC)n2)c1C(=O)O	Active	Active	Active	inactive	Active	Active	Active	Active	Active	Active	Active	Active
